Data taken from PMC12751057, “The energy landscape of N-ribosidic bond cleavage catalysed by 2′-deoxynucleoside 5′-phosphate N-hydrolase 1” (Biochemical Journal, 2025).
Residue numbers refer to the chain shown, from its start.

Assays:
[1] = biological target: T1, 2′-deoxynucleoside 5′-phosphate N-hydrolase 1 (HsDNPH1) (Homo sapiens, UniProt O43598, E104Q); assay: ITC; also stopped-flow UV binding kinetics (KD app […]) and differential UV spectroscopy
T1 construct: gene DNPH1
T1 sequence (O43598 2-174 E104Q): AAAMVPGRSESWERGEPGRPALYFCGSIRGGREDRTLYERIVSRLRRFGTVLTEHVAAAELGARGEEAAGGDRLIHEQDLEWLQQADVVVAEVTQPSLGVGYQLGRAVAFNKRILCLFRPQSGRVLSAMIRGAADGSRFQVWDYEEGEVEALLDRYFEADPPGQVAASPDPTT

[2] = biological target: T2, 2′-deoxynucleoside 5′-phosphate N-hydrolase 1 (HsDNPH1) (Homo sapiens, UniProt O43598); assay: single-turnover stopped-flow UV kinetics, k2/k1 ratio from global fit; steady-state hydrolysis; format: biochemical
T2 construct: gene DNPH1
T2 sequence (O43598 2-174): T1 sequence (O43598 2-174 E104Q) with Q103E

[3] = biological target: T3, 2′-deoxynucleoside 5′-phosphate N-hydrolase 1 (HsDNPH1) (Homo sapiens, UniProt O43598, E55Q); assay: stopped-flow burst and single-turnover kinetics of the purified variant (turnover, k burst); format: biochemical
T3 construct: gene DNPH1
T3 sequence (O43598 2-174 E55Q): T1 sequence (O43598 2-174 E104Q) with E54Q, Q103E

[4] = biological target: T2, 2′-deoxynucleoside 5′-phosphate N-hydrolase 1 (HsDNPH1); assay: steady-state UV inhibition assay, competitive fit; format: biochemical

Kd [1] [µM] | Kd [2] [µM] | rate constant [3] [s⁻¹] | Ki [4] [µM] | Compound
1.6 ± 0.4 | 2.36 | 0.270 ± 0.001 |  | O=c1[nH]c(=O)n([C@H]2C[C@H](O)[C@@H](COP(=O)(O)O)O2)cc1CO [5hmdUMP, 5-hydroxymethyl-2′-deoxyuridine 5′-monophosphate]
 |  |  | 6900 ± 800 | O=P(O)(O)OC[C@H]1OC(O)[C@H](O)[C@@H]1O (stereo partly shown) [ribose 5-phosphate]
